Experimental data as given in patent US20220177428A1, “SPECIFICALLY SUBSTITUTED 3-(2-ALKOXY-6-ALKYL-4-PROPINYLPHENYL)-3-PYRROLIN-2-ONES AND THEIR USE AS HERBICIDES” (Bayer Aktiengesellschaft, priority 2019, published 2022).

What was measured:
Assay type in all cases: in vivo
Abutylon threophrasti = assay: Pre-emergence herbicidal effect; settings: 320 g ai/ha, visual score after 3 weeks
Description: (§1) Seeds of monocotyledonous and dicotyledonous weed plants and crop plants are laid out in sandy loam soil in wood-fibre pots and covered with soil. The compounds of the invention, formulated in the form of wettable powders (WP) or as emulsion concentrates (EC), are then applied to the surface of the covering soil as aqueous suspension or emulsion at a water application rate equating to 600 to 800 L/ha with addition of 0.2% wetting agent. After the treatment, the pots are placed in a greenhouse and kept under good growth conditions for the trial plants. The damage to the test plants is scored visually after a test period of 3 weeks by comparison with untreated controls (herbicidal activity in percent (%): 100% activity=the plants have died, 0% activity=like control plants). [table]

Alopecurus myosuroides [1] = assay: Pre-emergence herbicidal effect; settings: visual score after 3 weeks
Description: as §1

Amaranthus retroflexus = assay: Pre-emergence herbicidal effect; settings: 320 g ai/ha, visual score after 3 weeks
Description: as §1

Avena fatua [2] = assay: Pre-emergence herbicidal effect; settings: visual score after 3 weeks
Description: as §1

Digitaria sanguinalis [3] = assay: Pre-emergence herbicidal effect; settings: visual score after 3 weeks
Description: as §1

Echinochloa crus-galli [4] = assay: Pre-emergence herbicidal effect; settings: visual score after 3 weeks
Description: as §1

Lolium rigidum [5] = assay: Pre-emergence herbicidal effect; settings: visual score after 3 weeks
Description: as §1

Matricaria inodora = assay: Pre-emergence herbicidal effect; settings: 320 g ai/ha, visual score after 3 weeks
Description: as §1

Setaria viridis [6] = assay: Pre-emergence herbicidal effect; settings: visual score after 3 weeks
Description: as §1

Veronica persica = assay: Pre-emergence herbicidal effect; settings: 320 g ai/ha, visual score after 3 weeks
Description: as §1

Viola tricolor = assay: Pre-emergence herbicidal effect; settings: visual score after 3 weeks
Description: as §1

Alopecurus myosuroides [7] = assay: Post-emergence herbicidal effect; settings: 80 g ai/ha, visual score after about 3 weeks
Experimental: (§2) [table] Seeds of monocotyledonous and dicotyledonous weed and crop plants are laid out in sandy loam soil in wood-fibre pots, covered with soil and cultivated in a greenhouse under good growth conditions. 2 to 3 weeks after sowing, the test plants are treated at the one-leaf stage. The compounds of the invention, formulated in the form of wettable powders (WP) or as emulsion concentrates (EC), are then sprayed onto the green parts of the plants as aqueous suspension or emulsion at a water application rate equating to 600 to 800 L/ha with addition of 0.2% wetting agent. After the test plants have been left to stand in the greenhouse under optimal growth conditions for about 3 weeks, the action of the preparations is assessed visually in comparison to untreated controls (herbicidal action in percent (%): 100% activity=the plants have died, 0% activity=like control plants).

Avena fatua [8] = assay: Post-emergence herbicidal effect; settings: 80 g ai/ha, visual score after about 3 weeks
Experimental: as §2

Digitaria sanguinalis [9] = assay: Post-emergence herbicidal effect; settings: 80 g ai/ha, visual score after about 3 weeks
Experimental: as §2

Echinochloa crus-galli [10] = assay: Post-emergence herbicidal effect; settings: 80 g ai/ha, visual score after about 3 weeks
Experimental: as §2

Lolium rigidum [11] = assay: Post-emergence herbicidal effect; settings: 80 g ai/ha, visual score after about 3 weeks
Experimental: as §2

Setaria viridis [12] = assay: Post-emergence herbicidal effect; settings: 80 g ai/ha, visual score after about 3 weeks
Experimental: as §2

SMILES: CC#Cc1cc(C)c(C2=C(OC(=O)OCC)C3(CCC(COC)CC3)NC2=O)c(OC)c1 (stereo not drawn) [Example Q8]
- Pre-emergence activity ABUTH (Abutylon threophrasti): 100%
- Pre-emergence activity ALOMY (Alopecurus myosuroides [1]; 80 g ai/ha): 100%
- Pre-emergence activity ALOMY (Alopecurus myosuroides [1]; 320 g ai/ha): 100%
- Pre-emergence activity AMARE (Amaranthus retroflexus): 100%
- Pre-emergence activity AVEFA (Avena fatua [2]; 80 g ai/ha): 80%
- Pre-emergence activity AVEFA (Avena fatua [2]; 320 g ai/ha): 100%
- Pre-emergence activity DIGSA (Digitaria sanguinalis [3]; 80 g ai/ha): 100%
- Pre-emergence activity DIGSA (Digitaria sanguinalis [3]; 320 g ai/ha): 100%
- Pre-emergence activity ECHCG (Echinochloa crus-galli [4]; 80 g ai/ha): 100%
- Pre-emergence activity ECHCG (Echinochloa crus-galli [4]; 320 g ai/ha): 100%
- Pre-emergence activity LOLRI (Lolium rigidum [5]; 80 g ai/ha): 100%
- Pre-emergence activity LOLRI (Lolium rigidum [5]; 320 g ai/ha): 100%
- Pre-emergence activity MATIN (Matricaria inodora): 100%
- Pre-emergence activity SETVI (Setaria viridis [6]; 80 g ai/ha): 100%
- Pre-emergence activity SETVI (Setaria viridis [6]; 320 g ai/ha): 100%
- Pre-emergence activity VERPE (Veronica persica): 100%
- Pre-emergence activity VIOTR (Viola tricolor; 80 g ai/ha): 100%
- Pre-emergence activity VIOTR (Viola tricolor; 320 g ai/ha): 100%
- Post-emergence activity ALOMY (Alopecurus myosuroides [7]): 100%
- Post-emergence activity AVEFA (Avena fatua [8]): 100%
- Post-emergence activity DIGSA (Digitaria sanguinalis [9]): 100%
- Post-emergence activity ECHCG (Echinochloa crus-galli [10]): 100%
- Post-emergence activity LOLRI (Lolium rigidum [11]): 100%
- Post-emergence activity SETVI (Setaria viridis [12]): 100%
